Results reported in patent publication US20220169628A1 (University of Florida Research Foundation, Incorporated, priority 2019, published 2022).
Read-outs that look alike come from different tables or passages of the source.

Assays:
MOLT-4 cells = assay: Cell viability assay, MTS, 48 h, MOLT-4; format: cell-based; conditions: 48 hours, read-out: IC50 (48 hours) MOLT-4
Method: (§1) Acute lymphoblastic leukemia cells (MOLT-4 and RS4; 11) or small cell lung cancer (NCI-H146 or simply H146) were incubated with increasing concentrations of Bcl-xL degraders for 48 h. Cell viability was measured by tetrazolium-based MTS assay.

RS4;11 cells = assay: Cell viability assay, MTS, 48 h, RS4;11; format: cell-based; conditions: 48 hours, read-out: IC50 (48 hours) RS4;11
Method: as §1

Row | IC50 (MOLT-4 cells; Homo sapiens, MOLT-4, 48 h) [nM] | IC50 (RS4;11 cells; Homo sapiens, RS4-11, 48 h) [nM] | Molecule | IC50 (MOLT-4 cells) [nM] | IC50 (RS4;11 cells) [nM]
1 | > 500 | 150 to 500 | Cc1ncsc1-c1ccc([C@H](C)NC(=O)[C@@H]2C[C@@H](O)CN2C(=O)[C@@H](NC(=O)CCCN2CCN(CC3(C)CCC(c4ccc(Cl)cc4)=C(CN4CCN(c5ccc(C(=O)NS(=O)(=O)c6ccc(N[C@H](CCN7CCOCC7)CSc7ccccc7)c(S(=O)(=O)C(F)(F)F)c6)cc5)CC4)C3)CC2)C(C)(C)C)cc1 (stereo partly drawn) [compound 68, (2S,4R)-1-((2S)-2-(4-(4-((4′-chloro-4-methyl-6-((4-(4-(((4-(((R)-4-morpholino-1-(phenylthio)butan-2-yl)amino)-3-((trifluoromethyl)sulfonyl)phenyl)sulfonyl)carbamoyl)phenyl)piperazin-1-yl)methyl)-2,3,4,5-tetrahydro-[1,1′-biphenyl]-4-yl)methyl)piperazin-1-yl)butanamido)-3,3-dimethylbutanoyl)-4-hydroxy-N—((S)-1-(4-(4-methylthiazol-5-yl)phenyl)ethyl)pyrrolidine-2-carboxamide] | – | –
2 | 50 to 150 | 50 to 150 | Cc1ncsc1-c1ccc([C@H](C)NC(=O)[C@@H]2C[C@@H](O)CN2C(=O)[C@@H](NC(=O)CCCCC(=O)N2CCN(CCN(C)CC3(C)CCC(c4ccc(Cl)cc4)=C(CN4CCN(c5ccc(C(=O)NS(=O)(=O)c6ccc(N[C@H](CCN7CCOCC7)CSc7ccccc7)c(S(=O)(=O)C(F)(F)F)c6)cc5)CC4)C3)CC2)C(C)(C)C)cc1 (stereo partly drawn) [compound 58] | – | –
3 | < 50 | < 50 | Cc1ncsc1-c1ccc([C@H](C)NC(=O)[C@@H]2C[C@@H](O)CN2C(=O)[C@@H](NC(=O)CCCCCC(=O)N2CCN(CC3(C)CCC(c4ccc(Cl)cc4)=C(CN4CCN(c5ccc(C(=O)NS(=O)(=O)c6ccc(N[C@H](CCN7CCOCC7)CSc7ccccc7)c(S(=O)(=O)C(F)(F)F)c6)cc5)CC4)C3)CC2)C(C)(C)C)cc1 (stereo partly drawn) [degrader #16, (2S,4R)-1-((2S)-2-(7-(4-((4′-chloro-4-methyl-6-((4-(4-(((4-(((R)-4-morpholino-1-(phenylthio)butan-2-yl)amino)-3-((trifluoromethyl)sulfonyl)phenyl)sulfonyl)carbamoyl)phenyl)piperazin-1-yl)methyl)-2,3,4,5-tetrahydro-[1,1′-biphenyl]-4-yl)methyl)piperazin-1-yl)-7-oxoheptanamido)-3,3-dimethylbutanoyl)-4-hydroxy-N—((S)-1-(4-(4-methylthiazol-5-yl)phenyl)ethyl)pyrrolidine-2-carboxamide] | – | –
4 | 50 to 150 | 50 to 150 | Cc1ncsc1-c1ccc([C@H](C)NC(=O)[C@@H]2C[C@@H](O)CN2C(=O)[C@@H](NC(=O)CCCCCCCN2CCN(CC3(C)CCC(c4ccc(Cl)cc4)=C(CN4CCN(c5ccc(C(=O)NS(=O)(=O)c6ccc(N[C@H](CCN7CCOCC7)CSc7ccccc7)c(S(=O)(=O)C(F)(F)F)c6)cc5)CC4)C3)CC2)C(C)(C)C)cc1 (stereo partly drawn) [Compound 53] | – | –
5 | 50 to 150 | < 50 | Cc1ncsc1-c1ccc([C@H](C)NC(=O)[C@@H]2C[C@@H](O)CN2C(=O)[C@@H](NC(=O)CCCCC(=O)N2CC3(CCN(CC4(C)CCC(c5ccc(Cl)cc5)=C(CN5CCN(c6ccc(C(=O)NS(=O)(=O)c7ccc(N[C@H](CCN8CCOCC8)CSc8ccccc8)c(S(=O)(=O)C(F)(F)F)c7)cc6)CC5)C4)CC3)C2)C(C)(C)C)cc1 (stereo partly drawn) [degrader #30, (2S,4R)-1-((2S)-2-(6-(7-((4′-chloro-4-methyl-6-((4-(4-(((4-(((R)-4-morpholino-1-(phenylthio)butan-2-yl)amino)-3-((trifluoromethyl)sulfonyl)phenyl)sulfonyl)carbamoyl)phenyl)piperazin-1-yl)methyl)-2,3,4,5-tetrahydro-[1,1′-biphenyl]-4-yl)methyl)-2,7-diazaspiro[3.5]nonan-2-yl)-6-oxohexanamido)-3,3-dimethylbutanoyl)-4-hydroxy-N—((S)-1-(4-(4-methylthiazol-5-yl)phenyl)ethyl)pyrrolidine-2-carboxamide] | – | –

More lines, now with the values behind:

Row | Molecule | IC50 (MOLT-4 cells; Homo sapiens, MOLT-4, 48 h) [nM] | IC50 (RS4;11 cells; Homo sapiens, RS4-11, 48 h) [nM] | IC50 (MOLT-4 cells) [nM] | IC50 (RS4;11 cells) [nM]
6 | (S)-13-((2S,4R)-4-hydroxy-2-(((S)-1-(4-(4-methylthiazol-5-yl)phenyl)ethyl)carbamoyl)pyrrolidine-1-carbonyl)-14,14-dimethyl-11-oxo-3,6,9-trioxa-12-azapentadecyl 4-(4-chlorophenyl)-5-((4-(4-(((4-(((R)-4-morpholino-1-(phenylthio)butan-2-yl)amino)-3-((trifluoromethyl)sulfonyl)phenyl)sulfonyl)carbamoyl)phenyl)piperazin-1-yl)methyl)-3,6-dihydropyridine-1(2H)-carboxylate [Example 8] | – | – | 150 to 500 | 150 to 500
7 | Cc1ncsc1-c1ccc([C@H](C)NC(=O)[C@@H]2C[C@@H](O)CN2C(=O)[C@@H](NC(=O)CCCCCC(=O)N2CCN(CCN(C)CC3(C)CCC(c4ccc(Cl)cc4)=C(CN4CCN(c5ccc(C(=O)NS(=O)(=O)c6ccc(N[C@H](CCN7CCOCC7)CSc7ccccc7)c(S(=O)(=O)C(F)(F)F)c6)cc5)CC4)C3)CC2)C(C)(C)C)cc1 (stereo partly drawn) [compound 59] | < 50 | < 50 | – | –
8 | Cc1ncsc1-c1ccc([C@H](C)NC(=O)[C@@H]2C[C@@H](O)CN2C(=O)[C@@H](NC(=O)CCCCCCCC(=O)N[C@H]2CCCN(CC3(C)CCC(c4ccc(Cl)cc4)=C(CN4CCN(c5ccc(C(=O)NS(=O)(=O)c6ccc(N[C@H](CCN7CCOCC7)CSc7ccccc7)c(S(=O)(=O)C(F)(F)F)c6)cc5)CC4)C3)C2)C(C)(C)C)cc1 (stereo partly drawn) [degrader #48, N1-((3S)-1-((4′-chloro-4-methyl-6-((4-(4-(((4-(((R)-4-morpholino-1-(phenylthio)butan-2-yl)amino)-3-((trifluoromethyl)sulfonyl)phenyl)sulfonyl)carbamoyl)phenyl)piperazin-1-yl)methyl)-2,3,4,5-tetrahydro-[1,1′-biphenyl]-4-yl)methyl)piperidin-3-yl)-N9-((S)-1-((2S,4R)-4-hydroxy-2-(((S)-1-(4-(4-methylthiazol-5-yl)phenyl)ethyl)carbamoyl)pyrrolidin-1-yl)-3,3-dimethyl-1-oxobutan-2-yl)nonanediamide] | 50 to 150 | < 50 | – | –
9 | Cc1ncsc1-c1ccc([C@H](C)NC(=O)[C@@H]2C[C@@H](O)CN2C(=O)[C@@H](NC(=O)CCCCCC(=O)N2CCC(c3ccc(Cl)cc3)=C(CN3CCN(c4ccc(C(=O)NS(=O)(=O)c5ccc(N[C@H](CCN6CCOCC6)CSc6ccccc6)c(S(=O)(=O)C(F)(F)F)c5)cc4)CC3)C2)C(C)(C)C)cc1 [compound 80, (2S,4R)-1-((S)-2-(7-(4-(4-chlorophenyl)-5-((4-(4-(((4-(((R)-4-morpholino-1-(phenylthio)butan-2-yl)amino)-3-((trifluoromethyl)sulfonyl)phenyl)sulfonyl)carbamoyl)phenyl)piperazin-1-yl)methyl)-3,6-dihydropyridin-1(2H)-yl)-7-oxoheptanamido)-3,3-dimethylbutanoyl)-4-hydroxy-N—((S)-1-(4-(4-methylthiazol-5-yl)phenyl)ethyl)pyrrolidine-2-carboxamide] | > 500 | > 500 | – | –
10 | CC1(CNC(=O)CCCCCNc2cccc3c2C(=O)N(C2CCC(=O)NC2=O)C3=O)CCC(c2ccc(Cl)cc2)=C(CN2CCN(c3ccc(C(=O)NS(=O)(=O)c4ccc(N[C@H](CCN5CCOCC5)CSc5ccccc5)c(S(=O)(=O)C(F)(F)F)c4)cc3)CC2)C1 (stereo partly drawn) [compound 71, 4-(4-((4′-chloro-4-((6-((2-(2,6-dioxopiperidin-3-yl)-1,3-dioxoisoindolin-4-yl)amino)hexanamido)methyl)-4-methyl-3,4,5,6-tetrahydro-[1,1′-biphenyl]-2-yl)methyl)piperazin-1-yl)-N-((4-(((R)-4-morpholino-1-(phenylthio)butan-2-yl)amino)-3-((trifluoromethyl)sulfonyl)phenyl)sulfonyl)benzamide] | < 50 | < 50 | – | –
11 | Cc1ncsc1-c1ccc([C@H](C)NC(=O)[C@@H]2C[C@@H](O)CN2C(=O)[C@@H](NC(=O)CCCCCCCC(=O)N2CCN(C(=O)C3(C)CCC(c4ccc(Cl)cc4)=C(CN4CCN(c5ccc(C(=O)NS(=O)(=O)c6ccc(N[C@H](CCN7CCOCC7)CSc7ccccc7)c(S(=O)(=O)C(F)(F)F)c6)cc5)CC4)C3)CC2)C(C)(C)C)cc1 (stereo partly drawn) [compound 66, (2S,4R)-1-((2S)-2-(9-(4-(4′-chloro-4-methyl-6-((4-(4-(((4-(((R)-4-morpholino-1-(phenylthio)butan-2-yl)amino)-3-((trifluoromethyl)sulfonyl)phenyl)sulfonyl)carbamoyl)phenyl)piperazin-1-yl)methyl)-2,3,4,5-tetrahydro-[1,1′-biphenyl]-4-carbonyl)piperazin-1-yl)-9-oxononanamido)-3,3-dimethylbutanoyl)-4-hydroxy-N—((S)-1-(4-(4-methylthiazol-5-yl)phenyl)ethyl)pyrrolidine-2-carboxamide] | < 50 | < 50 | – | –
12 | (2S,4R)-1-((S)-2-(10-(4-(4-chlorophenyl)-5-((4-(4-(((4-(((R)-4-morpholino-1-(phenylthio)butan-2-yl)amino)-3-((trifluoromethyl)sulfonyl)phenyl)sulfonyl)carbamoyl)phenyl)piperazin-1-yl)methyl)-3,6-dihydropyridin-1(2H)-yl)-10-oxodecanamido)-3,3-dimethylbutanoyl)-4-hydroxy-N—((S)-1-(4-(4-methylthiazol-5-yl)phenyl)ethyl)pyrrolidine-2-carboxamide [Example 5] | – | – | < 50 | < 50
